Five compounds from ChEMBL document CHEMBL1130877, “The synthesis of new adenosine A3 selective ligands containing bioisosteric isoxazoles” (Bioorg Med Chem Lett, 1998) can be followed below.

Structures are written as SMILES.

Assay [1] deals with Adenosine receptor A2a (Rattus norvegicus, UniProt P30543). Briefly: Binding affinity for adenosine A2a receptor as inhibition of 3[H]-CGS 21680 binding in rat striatum. Type of assay: tissue-based.
Assay [2] addresses T1, Adenosine receptor A1 (Rattus norvegicus, UniProt P25099).
T1 sequence (P25099 whole entry): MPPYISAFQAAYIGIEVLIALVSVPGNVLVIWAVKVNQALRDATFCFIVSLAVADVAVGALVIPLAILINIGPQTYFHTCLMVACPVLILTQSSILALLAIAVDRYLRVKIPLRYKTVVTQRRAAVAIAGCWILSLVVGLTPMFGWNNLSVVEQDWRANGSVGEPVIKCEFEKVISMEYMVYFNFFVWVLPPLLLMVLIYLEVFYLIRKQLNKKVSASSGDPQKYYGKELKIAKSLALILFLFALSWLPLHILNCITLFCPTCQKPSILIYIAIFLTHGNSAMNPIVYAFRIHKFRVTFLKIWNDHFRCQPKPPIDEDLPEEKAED
Briefly: Binding affinity for adenosine A1 receptor as inhibition of 3[H]-R-PIA binding in rat brain. Type of assay: tissue-based.

Assay [3] deals with T2, Adenosine receptor A3 (Homo sapiens, UniProt P0DMS8).
T2 sequence (P0DMS8 whole entry): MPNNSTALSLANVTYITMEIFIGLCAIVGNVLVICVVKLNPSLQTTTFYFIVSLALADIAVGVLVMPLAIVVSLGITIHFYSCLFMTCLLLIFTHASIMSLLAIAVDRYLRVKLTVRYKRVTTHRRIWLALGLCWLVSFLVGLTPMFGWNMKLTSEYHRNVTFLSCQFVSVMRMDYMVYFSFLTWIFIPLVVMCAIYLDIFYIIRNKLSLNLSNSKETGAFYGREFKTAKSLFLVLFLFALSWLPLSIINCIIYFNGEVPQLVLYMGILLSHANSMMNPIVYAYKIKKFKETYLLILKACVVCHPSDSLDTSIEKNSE
Briefly: Binding affinity for adenosine A3 receptor as inhibition of [125I]AB-MECA binding to human receptor expressed in HEK 293 cells. Type of assay: cell-based, HEK293.

Adenosine receptor A2a, sequence (P30543 whole entry): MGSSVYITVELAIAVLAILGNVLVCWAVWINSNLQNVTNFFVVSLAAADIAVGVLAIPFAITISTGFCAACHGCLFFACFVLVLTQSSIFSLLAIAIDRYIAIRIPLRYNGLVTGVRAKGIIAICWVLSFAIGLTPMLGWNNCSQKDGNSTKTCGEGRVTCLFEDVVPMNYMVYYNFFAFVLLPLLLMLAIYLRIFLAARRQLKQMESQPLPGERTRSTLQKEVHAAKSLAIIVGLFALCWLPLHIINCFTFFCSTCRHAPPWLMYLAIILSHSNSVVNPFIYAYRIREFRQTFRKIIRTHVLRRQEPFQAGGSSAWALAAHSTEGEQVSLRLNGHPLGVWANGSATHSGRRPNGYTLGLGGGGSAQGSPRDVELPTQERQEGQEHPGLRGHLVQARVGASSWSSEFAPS

Usually Ki stands for the equilibrium dissociation constant of an inhibitor or competing ligand from its target. Read a low Ki as a stronger hold on the target. In the case of `O[C@@H]1[C@H](O)[C@@H](c2ccon2)O[C@H]1n1cnc2c(NCc3cccc(I)c3)nc(Cl)nc21`, the values for the Ki in assay [1], in assay [2] and in assay [3] were 1900 nM, 1900 nM and 7.8 nM, respectively.
Compound `CONc1nc(Cl)nc2c1ncn2[C@@H]1O[C@H](CCl)[C@@H](O)[C@H]1O` came in with an inhibitory constant (Ki) in assay [3] of 26 nM.
Take `CONc1nc(Cl)nc2c1ncn2[C@@H]1O[C@H](c2ccon2)[C@@H](O)[C@H]1O`: the Ki in assay [1] was > 10000 nM; in assay [2], 620 nM; in assay [3], 31 nM.
In the same order, the values of `CNC(=O)[C@H]1O[C@@H](n2cnc3c(NCc4ccccc4)ncnc32)[C@H](O)[C@@H]1O` are 2100 nM, 2400 nM and 41 nM.
The matching figures for `C=C[C@H]1O[C@@H](n2cnc3c(NOC)nc(Cl)nc32)[C@H](O)[C@@H]1O`: > 10000 nM, 1230 nM and 20 nM.
